Literature values as cited in US8969340B2, “Methods for treating chronic pelvic pain syndrome” (Northwestern University, priority 2004, dated 2015).
Like-named read-outs stand apart in the source and are kept apart here.

Molecular target: T1, CCR-2 receptor (Homo sapiens, UniProt P41597)
T1 sequence (P41597 1-360 isoform P41597-2): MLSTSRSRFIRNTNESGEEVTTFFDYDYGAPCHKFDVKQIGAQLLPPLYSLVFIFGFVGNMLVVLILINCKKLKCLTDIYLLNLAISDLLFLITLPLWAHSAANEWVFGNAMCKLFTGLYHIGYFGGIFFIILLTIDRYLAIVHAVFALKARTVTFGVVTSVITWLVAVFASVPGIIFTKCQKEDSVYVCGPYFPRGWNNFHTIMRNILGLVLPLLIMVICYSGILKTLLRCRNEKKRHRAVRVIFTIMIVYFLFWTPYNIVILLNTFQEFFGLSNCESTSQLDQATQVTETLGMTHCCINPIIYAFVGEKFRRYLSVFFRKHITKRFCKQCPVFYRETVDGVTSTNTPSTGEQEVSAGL
Conditions: indolopiperidines

Row | Ki (variation of chain length n) | Ki (variation of X and R) | Structure (SMILES)
1 | > 10 µM |  | O=C(/C=C/c1ccc(Cl)c(Cl)c1)NCCN1CCC(c2c[nH]c3ccccc23)CC1 [compound 30]
2 |  | > 10 µM | O=S(=O)(NCCCCCN1CCC(c2c[nH]c3ccccc23)CC1)c1ccc(Cl)c(Cl)c1 [compound 10]
